From patent publication US20250326732A1 (Pretzel Therapeutics, Inc., priority 2021, published 2025)

Target: POLRMT (Homo sapiens (Human), UniProt O00411)
Experiment: homogeneous TR-FRET assay of mitochondrial transcription (inhibition of POLRMT)
Assay type: biochemical
Details: 7.5 nM POLRMT, 15 nM TFB2M, 30 nM TFAM, 0.5 nM DNA template, 500 μM NTPs, 37° C. for 60 minutes
Method in brief: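 POLRMT transcription from linearized pUC-LSP DNA template; RNA product detected by hybridization of ATTO647 acceptor (1 nM) and biotinylated donor (3 nM) probes plus Europium-streptavidin. Reaction stopped with EDTA/700 mM NaCl buffer, pH 7.5.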

Sequence of POLRMT (O00411 42-1230): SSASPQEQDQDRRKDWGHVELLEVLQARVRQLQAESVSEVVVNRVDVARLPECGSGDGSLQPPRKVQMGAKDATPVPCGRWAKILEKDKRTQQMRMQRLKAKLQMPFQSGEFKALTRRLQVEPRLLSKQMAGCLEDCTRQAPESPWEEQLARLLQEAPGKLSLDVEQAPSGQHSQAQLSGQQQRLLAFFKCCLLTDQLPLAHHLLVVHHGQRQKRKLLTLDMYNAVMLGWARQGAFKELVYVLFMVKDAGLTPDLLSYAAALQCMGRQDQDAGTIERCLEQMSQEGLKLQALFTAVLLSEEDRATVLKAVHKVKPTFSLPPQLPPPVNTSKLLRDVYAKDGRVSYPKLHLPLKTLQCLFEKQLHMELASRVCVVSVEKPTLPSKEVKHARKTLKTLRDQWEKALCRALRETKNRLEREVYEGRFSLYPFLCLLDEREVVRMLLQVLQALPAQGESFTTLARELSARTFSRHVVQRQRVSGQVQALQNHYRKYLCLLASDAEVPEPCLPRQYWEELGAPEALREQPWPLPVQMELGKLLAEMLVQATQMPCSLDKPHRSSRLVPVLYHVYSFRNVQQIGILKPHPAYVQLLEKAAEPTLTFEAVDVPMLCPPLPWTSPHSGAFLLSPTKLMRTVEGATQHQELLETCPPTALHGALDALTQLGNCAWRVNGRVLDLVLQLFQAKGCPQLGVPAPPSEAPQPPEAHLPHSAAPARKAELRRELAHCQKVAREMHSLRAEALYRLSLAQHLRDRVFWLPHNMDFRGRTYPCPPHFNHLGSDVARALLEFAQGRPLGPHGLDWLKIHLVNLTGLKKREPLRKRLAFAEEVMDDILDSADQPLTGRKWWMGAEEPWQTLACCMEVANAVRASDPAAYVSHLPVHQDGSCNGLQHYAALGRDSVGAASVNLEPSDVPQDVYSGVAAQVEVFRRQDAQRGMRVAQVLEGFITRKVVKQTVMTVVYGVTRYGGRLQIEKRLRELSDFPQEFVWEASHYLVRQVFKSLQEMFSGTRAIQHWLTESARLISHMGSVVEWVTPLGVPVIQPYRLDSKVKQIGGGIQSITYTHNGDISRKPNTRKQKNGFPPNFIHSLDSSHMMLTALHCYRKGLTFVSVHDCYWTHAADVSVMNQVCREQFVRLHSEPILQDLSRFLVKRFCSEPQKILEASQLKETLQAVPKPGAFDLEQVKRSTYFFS

Row | Structure (SMILES) | IC50
1 | Cc1ccccc1-c1cc(=O)oc2cc(NCC(C)C(=O)O)ccc12 (single isomer, unassigned) [Example 154-1, 2-methyl-3-((2-oxo-4-(o-tolyl)-2H-chromen-7-yl)amino)propanoic acid] | 1 µM
2 | C[C@H](Cc1ccc2c(-c3ccc(F)cc3Cl)cc(=O)oc2c1)C(=O)N1CCC[C@H](C(=O)O)C1 [Example 187, (S)-1-((R)-3-(4-(2-chloro-4-fluorophenyl)-2-oxo-2H-chromen-7-yl)-2-methylpropanoyl)piperidine-3-carboxylic acid] | 0.1 µM
3 | Cc1ccccc1-c1cc(=O)oc2cc(N[C@@H](CC(C)C)C(=O)OC(C)(C)C)ccc12 [Example 60, tert-butyl (2-oxo-4-(o-tolyl)-2H-chromen-7-yl)-L-leucinate] | 8 µM
4 | Cc1ccccc1-c1cc(=O)oc2cc(N(C)CC3(C(=O)O)CC3)ccc12 [Example 217, 1-((methyl(2-oxo-4-(o-tolyl)-2H-chromen-7-yl)amino)methyl)cyclopropane-1-carboxylic acid] | 0.09 µM
5 | Cc1ccccc1-c1cc(=O)oc2cc(NCC(C)(C)C(=O)O)ccc12 [Example 127, 2,2-dimethyl-3-((2-oxo-4-(o-tolyl)-2H-chromen-7-yl)amino)propanoic acid] | 0.2 µM
6 | CCN(C)C(=O)c1ccc2c(-c3ccc(F)cc3Cl)cc(=O)oc2c1 [Example 23, 4-(2-chloro-4-fluorophenyl)-N-ethyl-N-methyl-2-oxo-2H-chromene-7-carboxamide] | 19 µM
7 | Cc1ccccc1-c1cc(=O)oc2cc(NCc3ccn[nH]3)ccc12 [Example 169, 7-(((1H-pyrazol-5-yl)methyl)amino)-4-(o-tolyl)-2H-chromen-2-one] | 3 µM
8 | Cc1ccccc1-c1cc(=O)oc2cc(C(=O)N3CC(C(N)=O)C3)ccc12 [Example 183, 1-(2-oxo-4-(o-tolyl)-2H-chromene-7-carbonyl) azetidine-3-carboxamide] | 7 µM
9 | Cc1ccccc1-c1cc(=O)oc2cc(CC(C)C(=O)N3CCC[C@H](C#N)C3)ccc12 (single isomer, unassigned) [Example 83] | 0.06 µM
10 | Cc1ccccc1-c1cc(=O)oc2cc(N(C)Cc3nccs3)ccc12 [Example 167, 7-(methyl(thiazol-2-ylmethyl)amino)-4-(o-tolyl)-2H-chromen-2-one] | 0.1 µM
11 | Cc1ccccc1-c1cc(=O)oc2cc(CN(C)C(=O)N3CCC(C(=O)O)CC3)ccc12 [Example 147, 1-(methyl((2-oxo-4-(o-tolyl)-2H-chromen-7-yl)methyl)carbamoyl)piperidine-4-carboxylic acid] | 0.3 µM
12 | C[C@@H](Nc1ccc2c(-c3ccc(F)cc3Cl)cc(=O)oc2c1)C(=O)N1CCOCC1 [Example 47, (R)-4-(2-chloro-4-fluorophenyl)-7-((1-morpholino-1-oxopropan-2-yl)amino)-2H-chromen-2-one] | 0.4 µM
13 | Cc1ccccc1-c1cc(=O)oc2cc(N[C@H](C)CC(=O)O)ccc12 [Example 148, (R)-3-((2-oxo-4-(o-tolyl)-2H-chromen-7-yl)amino)butanoic acid] | 2 µM
14 | COc1ccccc1-c1cc(=O)oc2cc(NC(=O)C(C)C)ccc12 [Example 30, N-(4-(2-methoxyphenyl)-2-oxo-2H-chromen-7-yl) isobutyramide] | > 100 µM
15 | Cc1ccccc1-c1cc(=O)oc2cc(CN(C)C(=O)N3CCC[C@@H](C(=O)O)C3)ccc12 [Example 222, (R)-1-(methyl((2-oxo-4-(o-tolyl)-2H-chromen-7-yl)methyl)carbamoyl)piperidine-3-carboxylic acid] | 2 µM
16 | Cc1ccccc1-c1cc(=O)oc2cc([C@@H]3C[C@H]3C(N)=O)ccc12 (relative stereo) [Example 238, chiral-(trans)-2-(2-oxo-4-(o-tolyl)-2H-chromen-7-yl)cyclopropane-1-carboxamide] | 3 µM
17 | O=C(O)CCNc1ccc2c(-c3ccc(F)cc3Cl)cc(=O)oc2c1 [Example 129, 3-((4-(2-chloro-4-fluorophenyl)-2-oxo-2H-chromen-7-yl)amino)propanoic acid] | 7 µM
18 | CC(=O)N(C)c1ccc2c(-c3ccccc3C)cc(=O)oc2c1 [Example 44, N-methyl-N-(2-oxo-4-(o-tolyl)-2H-chromen-7-yl)acetamide] | 12 µM
19 | Cc1ccccc1-c1cc(=O)oc2cc(N(C)CC(N)=O)ccc12 [Example 106, 2-(methyl(2-oxo-4-(o-tolyl)-2H-chromen-7-yl)amino)acetamide] | 0.2 µM
20 | Cc1ccccc1-c1cc(=O)oc2cc(CO)ccc12 [Example 09, 7-(hydroxymethyl)-4-(o-tolyl)-2H-chromen-2-one] | 10 µM
21 | C[C@H](C(=O)N(C)C)N(C)c1ccc2c(-c3ccc(F)cc3Cl)cc(=O)oc2c1 [Example 46, (R)-2-((4-(2-chloro-4-fluorophenyl)-2-oxo-2H-chromen-7-yl)(methyl)amino)-N,N-dimethylpropanamide] | 0.05 µM
22 | CNC(=O)c1ccc2c(-c3ccccc3C)cc(=O)oc2c1 [Example 02, N-methyl-2-oxo-4-(o-tolyl)-2H-chromene-7-carboxamide] | 2 µM
23 | CC(=O)NC(C)c1ccc2c(-c3ccccc3C)cc(=O)oc2c1 (stereo not drawn) [Example 96, N-(1-(2-oxo-4-(o-tolyl)-2H-chromen-7-yl)ethyl)acetamide] | 2 µM
24 | Cc1ccccc1-c1cc(=O)oc2cc(C(=O)N3CCCC(N(C)C)C3)ccc12 (stereo not drawn) [Example 170, 7-(3-(dimethylamino)piperidine-1-carbonyl)-4-(o-tolyl)-2H-chromen-2-one] | > 100 µM
25 | Cc1ccccc1-c1cc(=O)oc2cc(N(C)Cc3nnn[nH]3)ccc12 [Example 179, 7-(((1H-tetrazol-5-yl)methyl)(methyl)amino)-4-(o-tolyl)-2H-chromen-2-one] | 0.1 µM
26 | Cc1ccccc1-c1cc(=O)oc2cc(N(C)CC(=O)OC(C)C)ccc12 [Example 141, isopropyl N-methyl-N-(2-oxo-4-(o-tolyl)-2H-chromen-7-yl)glycinate] | 0.02 µM
27 | CC(=O)NC1CCCN(C(=O)c2ccc3c(-c4ccccc4C)cc(=O)oc3c2)C1 (single isomer, unassigned) [Example 175, N-(1-(2-oxo-4-(o-tolyl)-2H-chromene-7-carbonyl)piperidin-3-yl)acetamide] | > 100 µM
